Experiment [1] concerns PAR2. The experiment is described as follows: PAR activation by cytoplasmic calcium release in transfected HeLa cells (Fura-2 ratiometric imaging), PAR2. In kind it is cell-based, human. The settings on record: FIG. 3C; cathepsin S 2 μM, E64 10 μM, fura-2 single cell imaging. The method, then: (§1) The responses to PAR 2 and 4 were blocked by the protease inhibitor E64 (10 μM) as a control). Other controls included vector alone and vector encoding the PAR1 receptor. Cathepsin S was added as indicated. The averages from at least three separate experiments were then combined +/−SD.
(§2) Salmon sperm (SS) DNA is used as control. The averages from at least three separate experiments were then combined +/−SD.
(§3) PAR activation observed by cytoplasmic calcium release—The four human PAR cDNAs were obtained from commercial sources and cloned into the pcDNA3.1(−) vector (INVITROGEN™ Inc.). HeLa cells were transfected with 10 μg of vector cDNA using Lipofectamine 2000 (INVITROGEN™ Inc.) and cultured for two days in 96-well glass bottom plates at 30,000 cells/well. Cells were loaded with Fura-2 as follows. The medium was aspirated and replaced with 100 μl of complete DMEM containing 2 μM Fura-2 (INVITROGEN™ Inc.) and kept at room temperature in the dark for 1 hr. The medium was again aspirated and each well received 90 μl of HEPES buffered saline (20 mM HEPES, 115 mM NaCl, 5.4 mM KCl, 2 mM CaCl2, 0.8 mM MgCl2, 13.8 mM glucose, pH 7.4). Plates were observed using a Zeiss Axiovert 200M microscope equipped with a filter wheel for monitoring excitation at 340 and 380 nm. Axiovision software, version 4.6 was used to analyze ratiometric calcium imaging of the cells. […]

For experiment [2], the target named is T1, human cathepsin K (Homo sapiens, UniProt P43235).
T1 construct: made in house; host or cells: E. coli
T1 sequence (P43235 115-329): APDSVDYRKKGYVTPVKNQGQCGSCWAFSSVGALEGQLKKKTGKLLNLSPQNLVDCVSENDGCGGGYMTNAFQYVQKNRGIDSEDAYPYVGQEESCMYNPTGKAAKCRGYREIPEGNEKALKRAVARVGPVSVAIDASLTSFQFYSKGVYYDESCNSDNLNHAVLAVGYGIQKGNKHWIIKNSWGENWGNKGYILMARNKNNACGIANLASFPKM
The experiment is described as follows: Chromogenic substrate assay, inhibition of cathepsin K by E64. In kind it is biochemical. Conditions: FIG. 1; protease 0.84 μM, E64 2 μM. On the procedure: (§4) The concentrations of all the three proteases are at 0.84 μM and that of E64, a non-selective irreversible inhibitor of cysteine proteases, is at 2 μM […].
(§5) Papain served as a positive control cysteine protease. The cathepsin S and K were further evaluated for their capacity to activate PAR receptors as noted below.

Experiment [3] has as its target T2, human cathepsin S (Homo sapiens, UniProt P25774).
T2 construct: made in house; host or cells: E. coli
Kind of experiment: Chromogenic substrate assay, inhibition of cathepsin S by E64. Type of experiment: biochemical. The settings on record: FIG. 1; protease 0.84 μM, E64 2 μM. On the procedure: as §4, §5

In experiment [4] the test system is PAR4. The experiment is described as follows: PAR activation by cytoplasmic calcium release in transfected HeLa cells (Fura-2 ratiometric imaging), PAR4. In kind it is cell-based, human. Conditions: FIG. 3C; cathepsin S 2 μM, E64 10 μM, fura-2 single cell imaging. On the procedure: as §1, §2, §3

T2 sequence (P25774 115-331): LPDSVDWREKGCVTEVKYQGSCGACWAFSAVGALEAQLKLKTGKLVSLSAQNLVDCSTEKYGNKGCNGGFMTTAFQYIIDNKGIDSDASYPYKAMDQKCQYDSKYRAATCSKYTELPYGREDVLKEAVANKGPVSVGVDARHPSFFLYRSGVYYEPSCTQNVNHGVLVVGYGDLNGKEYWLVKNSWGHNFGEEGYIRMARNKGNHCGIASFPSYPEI

Turning to `CC(C)C[C@H](NC(=O)[C@H]1O[C@@H]1C(=O)O)C(=O)NCCCCN=C(N)N` (relative stereo) [E64, trans-epoxysuccinyl-L-leucylamide-(4-guanidino) butane, reference compound], in experiment [1], the “cathepsin S induced PAR2 response in presence of E64” value is on record as “blocked”. The “protease activity of cathepsin K (cleavage of Z-Phe-Arg-pNA) in presence of E64” value in experiment [2] is “eliminated”. The “protease activity of cathepsin S (cleavage of Z-Phe-Arg-pNA) in presence of E64” value in experiment [3] was “eliminated”. For the same compound, the “cathepsin S induced PAR4 response in presence of E64” value in experiment [4] was “blocked”.

Values taken from patent publication US8852569B2, “Prevention and treatment of itch with cysteine protease inhibition” (The General Hospital Corporation, priority 2008, dated 2014).
